Target: T1, PPARγ (Homo sapiens, UniProt P37231)
T1 construct: gene PPARG; GAL4-PPARγ
T1 sequence (P37231 1-505): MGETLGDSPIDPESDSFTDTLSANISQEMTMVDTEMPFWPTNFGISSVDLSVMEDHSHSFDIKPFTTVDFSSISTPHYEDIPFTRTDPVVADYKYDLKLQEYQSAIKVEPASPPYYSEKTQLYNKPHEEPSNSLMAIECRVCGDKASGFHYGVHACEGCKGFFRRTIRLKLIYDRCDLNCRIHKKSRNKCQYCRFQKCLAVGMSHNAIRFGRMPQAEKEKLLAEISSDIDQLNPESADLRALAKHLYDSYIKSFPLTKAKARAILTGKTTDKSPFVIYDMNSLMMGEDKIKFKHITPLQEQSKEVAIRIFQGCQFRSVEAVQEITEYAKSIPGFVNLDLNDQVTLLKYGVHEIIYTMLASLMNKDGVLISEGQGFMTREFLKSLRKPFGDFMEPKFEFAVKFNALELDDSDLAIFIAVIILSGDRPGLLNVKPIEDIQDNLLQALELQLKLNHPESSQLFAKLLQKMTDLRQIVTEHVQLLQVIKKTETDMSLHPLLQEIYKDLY
Assay: GAL4-PPARγ/GAL4-luc luciferase transactivation in transfected HEK-293T cells (reference full agonist)
Format: cell-based

SMILES: CN(CCOc1ccc(CC2SC(=O)NC2=O)cc1)c1ccccn1 (stereo not shown) [Rosiglitazone]
- GAL4-PPARγ/GAL4-luc luciferase transactivation in transfected HEK-293T cells (re): RGZ activates PPARγ by acting mainly through the canonical binding site

Reference: PMC5771072, “Benefits of VCE-003.2, a cannabigerol quinone derivative, against inflammation-driven neuronal deterioration in experimental Parkinson’s disease: possible involvement of different binding sites at the PPARγ receptor” (Journal of Neuroinflammation, 2018)
